Key:
Type in all cases: cell-based
[1] = tested on: Human Pancreatic Carcinoma Cell Line (BXPC-3); assay: Tumor cell proliferation assay (MTT), BXPC-3; conditions: for inhibition at 10 µM: concentration of 10^−5 mol/L, preliminary screening, 72 hours, read-out: Inhibition rate % BXPC-3; for IC50: secondary screening, 48 hours
Source text: (§1) The assay used generally is the blue tetrazolium bromide (MTT) method. […] The amount of formazan can be detected by the microplate reader through the absorption value at 570 nm. The amount of formazan product generated is proportional to the number of living cells in the sample, so the OD value may reflect the number of living cells and the ability of a test drug to inhibit or kill cells. The MTT assay may be used in determining the ability of different compounds of the present invention to inhibit one or more cancer cells proliferation. Similar assays can be designed along the same lines for any cancer cell using techniques well known in the art.
(§2) The assay used generally is the blue tetrazolium bromide (MTT) method. […] Intracellular purple formazan salt crystals can be solved in DMSO and the absorption value at 570 nm is detected by the microplate reader, then the number of living cells can be detected indirectly. So MTT assay may be used to determine the ability of a compound of the present invention to inhibit cell proliferation. Similar assays can be designed along the same lines for any cancer cell using techniques well known in the art.
2.2.6 Human Pancreatic Carcinoma Cell Line (BXPC-3);
The cells of 2.2.6, 2.2.7 cultured in RPMI 1640 medium containing 12% fetal bovine serum in the condition of 37° C., 5% CO2.
(§3) 2.3.1 Cell seeding: Trypsinize the cell by 0.05% trypsin-EDTA and add RPMI 1640 medium (DMEM or 5A) containing 12% calf serum. Count the number, then dilute to 1.67×10^4/ml. Add 180 ul/well to the 96 well plate (3000 cells/well).
(§4) 2.3.2 Culture: cells are incubated for 24 hours at 37° C. under 5% CO2.
(§5) 2.3.3 Preliminary screening: The compounds are firstly diluted to 0.1 mol/L with DMSO, and then diluted to three concentrations of 10^−5 mol/L, 10^−6 mol/L and 10^−7 mol/L. Add 20 ul test compounds to the 96 well plate and incubate for 72 hours. Each group has three parallel wells and all experiments repeat three times. Each inhibition ratio is calculated, then an average value of three times is taken as the measured value. 2.3.4 Staining 2.3.4.1 Attached cell: add 20 ul/well MTT to the 96-well plates; incubate for 4 hours in the incubator. Pour out the culture medium in the well and add 100 ul/well DMSO. Shake the plate for 5 min. 2.3.4.2 Suspension cell: add 20 ul/well MTT to the 96-well plates; incubate for 4 hours in the incubator. Add 50 ul/well 20% SDS and incubate for overnight in the incubator. 2.3.5 Reading the plates: read the absorbance A570-A630 with the Infinite M200 microtiter plate reader. Calculate the inhibition ratio of the test compounds. […] Dilute these compounds to ten concentrations: 10^−5 mol/L, 0.5×10^−5 mol/L, 10^−6 mol/L, 0.8×10^−6 mol/L, 0.6×10^−6 mol/L, 0.4×10^−6 mol/L, 0.2×10^−6 mol/L, 10^−7 mol/L, 0.8×10^−7 mol/L and 0.4×10^−7 mol/L. Add 20 ul test compound solution to the 96 well plate and incubate for 48 hours. Each group has three parallel wells and all experiments repeat for three times. Read the plates and calculate the inhibition ratio according to the preliminary screening method. 2.3.7 Calculate the Inhibition Ratio of Cell Proliferation and the IC50
(§6) According to the inhibition ratio of cell proliferation at the different concentrations of the compound, inhibition ratio of 50% of the test compound is calculated through the logarithm of the concentration of the compound with the Logit [I] linear regression, and an average value of three times is taken as the measured value of a sample.

[2] = tested on: Human Small Cell Lung Cancer Cell Line (NCI-H446); assay: Tumor cell proliferation assay (MTT), NCI-H446; conditions: for inhibition at 10 µM: concentration of 10^−5 mol/L, preliminary screening, 72 hours, read-out: Inhibition rate % NCI-H446; for IC50: secondary screening, 48 hours
Source text: as §1, §2
2.2.5 Human Small Cell Lung Cancer Cell Line (NCI-H446)
(§7) The cells of the 2.2.1, 2.2.2, 2.2.3, 2.2.4, 2.2.5 cultured with RPMI 1640 containing 12% calf serum in the condition of 37° C., 5% CO2.
as §3, §4
(§8) 2.3.3 Preliminary screening: The compounds are firstly diluted to 0.1 mol/L with DMSO, and then diluted to three concentrations of 10^−5 mol/L, 10^−6 mol/L and 10^−7 mol/L. Add 20 ul test compounds to the 96 well plate and incubate for 72 hours. Each group has three parallel wells and all experiments repeat three times. Each inhibition ratio is calculated, then an average value of three times is taken as the measured value. 2.3.4 Staining 2.3.4.1 Attached cell: add 20 ul/well MTT to the 96-well plates; incubate for 4 hours in the incubator. Pour out the culture medium in the well and add 100 ul/well DMSO. Shake the plate for 5 min. 2.3.4.2 Suspension cell: add 20 ul/well MTT to the 96-well plates; incubate for 4 hours in the incubator. Add 50 ul/well 20% SDS and incubate for overnight in the incubator. 2.3.5 Reading the plates: read the absorbance A570-A630 with the Infinite M200 microtiter plate reader. Calculate the inhibition ratio of the test compounds. 2.3.6 Secondary screening: the compounds whose inhibition ratio is greater than 50% at the concentrations of 10^−5 mol/L in the preliminary screening will be picked out for Secondary screening. Dilute these compounds to ten concentrations: 10^−5 mol/L, 0.5×10^−5 mol/L, 10^−6 mol/L, 0.8×10^−6 mol/L, 0.6×10^−6 mol/L, 0.4×10^−6 mol/L, 0.2×10^−6 mol/L, 10^−7 mol/L, 0.8×10^−7 mol/L and 0.4×10^−7 mol/L. Add 20 ul test compound solution to the 96 well plate and incubate for 48 hours. Each group has three parallel wells and all experiments repeat for three times. Read the plates and calculate the inhibition ratio according to the preliminary screening method. 2.3.7 Calculate the Inhibition Ratio of Cell Proliferation and the IC50
as §6

[3] = tested on: Human Ovarian Cancer Cell Line (SK-OV-3); assay: Tumor cell proliferation assay (MTT), SK-OV-3; conditions: for inhibition at 10 µM: concentration of 10^−5 mol/L, preliminary screening, 72 hours, read-out: Inhibition rate % SK-OV-3; for IC50: secondary screening, 48 hours
Source text: as §1, §2
2.2.13 Human Ovarian Cancer Cell Line (SK-OV-3).
(§9) The cells of 2.2.11, 2.2.12, 2.2.13 were cultured in MC COYS 5-A medium containing 12% fetal bovine serum in the condition of 37° C., 5% CO2.
as §3, §4, §8, §6

[4] = tested on: Human Gastric Cancer Cell Line (BGC); assay: Tumor cell proliferation assay (MTT), BGC; conditions: for inhibition at 10 µM: concentration of 10^−5 mol/L, preliminary screening, 72 hours, read-out: Inhibition rate % BGC; for IC50: secondary screening, 48 hours
Source text: as §1, §2
2.2.1 Human Gastric Cancer Cell Line (BGC)
as §7, §3, §4, §8, §6

[5] = tested on: Human Pancreatic Carcinoma Cells (PANC-1); assay: Tumor cell proliferation assay (MTT), PANC-1; conditions: for inhibition at 10 µM: concentration of 10^−5 mol/L, preliminary screening, 72 hours, read-out: Inhibition rate % PANC-1; for IC50: secondary screening, 48 hours
Source text: as §1, §2
2.2.4 Human Pancreatic Carcinoma Cells (PANC-1)
as §7, §3, §4, §8, §6

[6] = tested on: Human Non-Small Cell Lung Cancer Cell Line (A549); assay: Tumor cell proliferation assay (MTT), A549; conditions: for inhibition at 10 µM: concentration of 10^−5 mol/L, preliminary screening, 72 hours, read-out: Inhibition rate % A549; for IC50: secondary screening, 48 hours
Source text: as §1, §2
2.2.2 Human Non-Small Cell Lung Cancer Cell Line (A549)
as §7, §3, §4, §8, §6

[7] = tested on: Human Colon Cancer Cell Line (HT-29); assay: Tumor cell proliferation assay (MTT), HT29; conditions: for inhibition at 10 µM: concentration of 10^−5 mol/L, preliminary screening, 72 hours, read-out: Inhibition rate % HT29; for IC50: secondary screening, 48 hours
Source text: as §1, §2
2.2.11 Human Colon Cancer Cell Line (HT-29);
as §9, §3, §4, §5, §6

Row | SMILES | IC50 [4] | IC50 [1] | IC50 [2] | IC50 [3] | IC50 [5] | IC50 [6] | IC50 [7] | inhibition at 10 µM [1] | inhibition at 10 µM [2] | inhibition at 10 µM [3] | inhibition at 10 µM [4] | inhibition at 10 µM [5] | inhibition at 10 µM [6] | inhibition at 10 µM [7]
1 | Cc1[nH]c2c(c1C(=O)NCC(O)CN1CCN(C)CC1)CCC/C2=C1/C(=O)Nc2ccc(Cl)cc21 (centres unmarked) [I-78, N-[2-hydroxy-3-(4-methylpiperazin-1-yl)propyl]-2-methyl-7-[1,2-dihydro-5-chloro-2-oxo-3H-indol-(Z)-3-ylidene]-4,5,6,7-tetrahydro-1H-indole-3-carboxamide] | 12200 nM |  |  |  |  |  |  | 31.7% | 8.07% | 20.2% | 48.5% | 21.8% | 29.9% | 24.2%
2 | Cc1[nH]c2c(c1C(=O)NCC(O)CN1CCOCC1)CCC/C2=C1/C(=O)Nc2ccc(Cl)cc21 (centres unmarked) [I-69, N-(2-hydroxy-3-morpholinopropyl)-2-methyl-7-[1,2-dihydro-5-chloro-2-oxo-3H-indol-(Z)-3-ylidene]-4,5,6,7-tetrahydro-1H-indole-3-carboxamide] |  |  |  |  |  |  |  | 39.9% | 25.3% | 2.8% | 30% | 22.4% | 18.9% | 34.9%
3 | Cc1[nH]c2c(c1C(=O)NCC(O)CN(C)C)CCC/C2=C1/C(=O)Nc2ccc(F)cc21 (centres unmarked) [I-66, N-(3-(dimethylamino)-2-hydroxypropyl)-2-methyl-7-[1,2-dihydro-5-fluoro-2-oxo-3H-indol-(Z)-3-ylidene]-4,5,6,7-tetrahydro-1H-indole-3-carboxamide] | 4660 nM | 3190 nM | 3030 nM | 3170 nM |  |  | 2890 nM | 97.9% | 88.7% | 85.1% | 76.8% |  |  | 93%

Continued by falling IC50 [4], values first:

Row | IC50 [4] | IC50 [1] | IC50 [2] | IC50 [3] | IC50 [5] | IC50 [6] | IC50 [7] | SMILES | inhibition at 10 µM [1] | inhibition at 10 µM [2] | inhibition at 10 µM [3] | inhibition at 10 µM [4] | inhibition at 10 µM [5] | inhibition at 10 µM [6] | inhibition at 10 µM [7]
4 | 4260 nM | 7680 nM | 9420 nM |  |  |  | 6900 nM | Cc1[nH]c2c(c1C(=O)NCC(O)CN1CCOCC1)CCC/C2=C1/C(=O)Nc2ccccc21 (centres unmarked) [I-67, N-(2-hydroxy-3-morpholinopropyl)-2-methyl-7-[1,2-dihydro-2-oxo-3H-indol-(Z)-3-ylidene]-4,5,6,7-tetrahydro-1H-indole-3-carboxamide] | 51.7% | 49.3% | 8.34% | 67.6% | 31.5% |  | 51.9%
5 | 3630 nM | 2240 nM | 7090 nM | 3030 nM | 3400 nM | 1360 nM | 1380 nM | Cc1[nH]c2c(c1C(=O)NCC(O)CN1CCN(C)CC1)CCC/C2=C1/C(=O)Nc2ccccc21 (centres unmarked) [I-76, N-[2-hydroxy-3-(4-methylpiperazin-1-yl)propyl]-2-methyl-7-[1,2-dihydro-2-oxo-3H-indol-(Z)-3-ylidene]-4,5,6,7-tetrahydro-1H-indole-3-carboxamide] | 97.5% | 64.6% | 90.3% | 74.2% | 80.1% | 64.5% | 92.1%
6 | 2920 nM | 1890 nM | 2980 nM | 2170 nM | 1810 nM | 3730 nM | 4360 nM | Cc1[nH]c2c(c1C(=O)NCC(O)CN1CCCC1)CCC/C2=C1/C(=O)Nc2ccc(Cl)cc21 (centres unmarked) [I-72, N-(2-hydroxy-3-(pyrrolidin-1-yl)propyl)-2-methyl-7-[1,2-dihydro-5-chloro-2-oxo-3H-indol-(Z)-3-ylidene]-4,5,6,7-tetrahydro-1H-indole-3-carboxamide] | 99.3% | 97.9% | 95.1% | 85.9% | 98.1% | 81.2% | 97.4%
7 | 2280 nM | 840 nM | 3260 nM | 1510 nM | 3990 nM | 2840 nM | 2320 nM | Cc1ccc2c(c1)/C(=C1\CCCc3c1[nH]c(C)c3C(=O)NCC(O)CN(C)C1CCCCC1)C(=O)N2 (centres unmarked) [I-79, N-[3-(cyclohexyl(methyl)amino)-2-hydroxypropyl]-2-methyl-7-[1,2-dihydro-5-methyl-2-oxo-3H-indol-(Z)-3-ylidene]-4,5,6,7-tetrahydro-1H-indole-3-carboxamide] | 99% |  | 96% | 81% | 96.8% | 63.3% | 98.2%
8 | 2210 nM | 1290 nM | 2050 nM | 2240 nM |  |  | 1300 nM | CCN(CC)CC(O)CNC(=O)c1c(C)[nH]c2c1CCC/C2=C1/C(=O)Nc2ccc(F)cc21 (centres unmarked) [I-64, N-(3-(diethylamino)-2-hydroxypropyl)-2-methyl-7-[1,2-dihydro-5-fluoro-2-oxo-3H-indol-(Z)-3-ylidene]-4,5,6,7-tetrahydro-1H-indole-3-carboxamide] | 98.5% | 98.1% | 93.5% | 84.7% |  |  | 96.6%
